biological target: T1, Aurora-A kinase (Homo sapiens, UniProt O14965); test: Aurora-A kinase assay (KinaseProfiler / Kinase Hotspot); format: biochemical; conditions: read-out: % Inhibition Auroro-A
T1 construct: purchased Millipore (KinaseProfiler Service); also Reaction Biology Corp. (Kinase HotSpot)
T1 sequence (O14965 1-403): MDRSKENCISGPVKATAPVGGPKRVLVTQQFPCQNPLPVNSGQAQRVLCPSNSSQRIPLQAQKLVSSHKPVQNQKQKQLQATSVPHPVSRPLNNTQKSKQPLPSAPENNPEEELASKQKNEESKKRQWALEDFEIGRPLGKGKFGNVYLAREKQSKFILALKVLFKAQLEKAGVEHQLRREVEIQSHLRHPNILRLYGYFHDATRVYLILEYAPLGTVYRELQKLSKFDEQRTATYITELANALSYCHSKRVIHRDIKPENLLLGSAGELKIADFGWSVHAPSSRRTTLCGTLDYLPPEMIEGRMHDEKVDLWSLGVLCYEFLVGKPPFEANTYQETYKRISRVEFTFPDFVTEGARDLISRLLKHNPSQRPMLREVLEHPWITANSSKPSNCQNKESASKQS
Description: (§1) This example illustrated c-Src kinase, Aurora-A kinase, Flt3 kinase, Ret kinase and TrkA Kinase Assays of selected Compounds from this invention (referred to Daniele Fancelli et al, J. Med. Chem., 2006, 49 (24), pp 7247-7251). The KinaseProfiler™ Service Assay Protocols (Millipore) were used to test the kinase inhibiting activity of novel compounds from this invention. To do this, the buffer composition was as: 20 mM MOPS, 1 mM EDTA, 0.01% Brij-35, 5% Glycerol, 0.1% p-mercaptoethanol, 1 mg/mL BSA. Test compounds were initially dissolved in DMSO at the desired concentration, then serially diluted to the kinase assay buffer. In a final reaction volume of […], Aurora-A(h) (5-10 mU) is incubated with 8 mM MOPS pH 7.0, 0.2 mM EDTA, […] LRRASLG (Kemptide), 10 mM MgAcetate and [y33P-ATP]. The reaction was initiated by the addition of the MgATP mix. After incubation for 40 minute at room temperature, the reaction was stopped by addition of […] of a 3% phosphoric acid solution. […] of the reaction was then spotted onto a P30 filtermat and washed three times for 5 minutes in 50 mM phosphoric acid and once in methanol prior to drying and scintillation counting. Wells containing substrate but no kinase and wells containing a phosphopeptide control were used to set 0% and 100% phosphorylation value, repectively.
(§2) Also Kinase Hotspot SM kinase assay was used to test the compounds for IC50 or % inhibitions (Reaction Biology Corp.). Inhibitor IC50 values were determined by titration of compound at the optimal kinase concentration (Kinase EC50).

Structure (SMILES) | inhibition at 1 µM [%]
CN1CCN(c2nc(Nc3ccccc3)nc(Nc3cc(-c4ccco4)[nH]n3)n2)CC1 [Example 20] | 50 to 90
CN1CCN(c2nc(Nc3ncc(-c4cccs4)s3)nc(Sc3ccccc3)n2)CC1 [Example 21] | < 50
CN1CCN(c2nc(Nc3cc(-c4ccco4)[nH]n3)nc(Sc3cc(Cl)cc(Cl)c3)n2)CC1 [Example 22] | 50 to 90
CN1CCN(c2nc(Nc3cc(-c4ccco4)[nH]n3)nc(Sc3ccc(Cl)c(Cl)c3)n2)CC1 [Example 23] | 50 to 90
COc1ccc(Sc2nc(Nc3cc(-c4ccco4)[nH]n3)nc(N3CCN(C)CC3)n2)cc1 [Example 24] | 50 to 90
CN1CCN(c2nc(Nc3cc(-c4ccco4)[nH]n3)nc(Sc3ccc(OC(F)(F)F)cc3)n2)CC1 [Example 25] | < 50
CN1CCN(c2nc(Nc3cc(-c4ccco4)[nH]n3)nc(Oc3ccccc3)n2)CC1 [Example 26] | 50 to 90
CN1CCN(c2nc(Nc3cc(-c4ccco4)[nH]n3)nc(N(C)c3ccccc3)n2)CC1 [Example 27] | 50 to 90
CN1CCN(c2nc(Nc3cc(-c4ccccc4)[nH]n3)nc(Sc3ccc(NC(=O)C4CC4)cc3)n2)CC1 [Example 28] | < 50
CN1CCN(c2nc(Nc3cc(-c4ccco4)[nH]n3)nc(Sc3cccc(NC(=O)C4CC4)c3)n2)CC1 [Example 30] | < 50
CN1CCN(c2nc(Nc3ncc(-c4cccs4)s3)nc(Sc3cccc(NC(=O)C4CC4)c3)n2)CC1 [Example 31] | < 50

biological target: T2, Ret kinase (Homo sapiens, UniProt P07949); test: Ret kinase assay (KinaseProfiler / Kinase Hotspot); format: biochemical; conditions: not given
T2 construct: purchased Millipore (KinaseProfiler Service); also Reaction Biology Corp. (Kinase HotSpot)
Description: as §1, §2

T2 sequence (P07949 29-1114): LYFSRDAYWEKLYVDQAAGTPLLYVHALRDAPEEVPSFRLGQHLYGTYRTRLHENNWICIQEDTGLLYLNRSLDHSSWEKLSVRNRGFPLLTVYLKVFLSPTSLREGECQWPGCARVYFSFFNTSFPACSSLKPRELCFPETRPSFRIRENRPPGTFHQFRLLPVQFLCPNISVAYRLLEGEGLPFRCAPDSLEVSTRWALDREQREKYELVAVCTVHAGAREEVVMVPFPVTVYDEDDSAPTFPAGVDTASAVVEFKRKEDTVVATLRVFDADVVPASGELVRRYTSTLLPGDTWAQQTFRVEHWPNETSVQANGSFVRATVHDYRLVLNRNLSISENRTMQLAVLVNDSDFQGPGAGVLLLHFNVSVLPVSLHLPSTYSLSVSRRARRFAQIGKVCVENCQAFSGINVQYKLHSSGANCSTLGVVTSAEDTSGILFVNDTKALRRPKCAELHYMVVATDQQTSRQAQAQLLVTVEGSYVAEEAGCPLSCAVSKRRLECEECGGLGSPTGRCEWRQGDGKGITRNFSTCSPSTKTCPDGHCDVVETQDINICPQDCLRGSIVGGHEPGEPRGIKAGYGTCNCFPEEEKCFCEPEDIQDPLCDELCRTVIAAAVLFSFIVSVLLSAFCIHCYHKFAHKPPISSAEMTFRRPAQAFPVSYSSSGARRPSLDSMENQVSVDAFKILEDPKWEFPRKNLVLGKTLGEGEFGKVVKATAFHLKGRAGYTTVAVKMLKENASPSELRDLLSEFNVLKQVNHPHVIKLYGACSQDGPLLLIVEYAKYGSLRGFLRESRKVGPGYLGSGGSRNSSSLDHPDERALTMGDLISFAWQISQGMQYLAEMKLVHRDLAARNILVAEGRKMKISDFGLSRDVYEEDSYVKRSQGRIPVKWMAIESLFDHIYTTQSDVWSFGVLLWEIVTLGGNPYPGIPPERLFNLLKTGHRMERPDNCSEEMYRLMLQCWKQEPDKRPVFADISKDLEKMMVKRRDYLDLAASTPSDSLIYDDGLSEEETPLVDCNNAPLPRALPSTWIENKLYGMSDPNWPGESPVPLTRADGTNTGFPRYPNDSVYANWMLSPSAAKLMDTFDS

Structure (SMILES) | inhibition at 1 µM [%]
CN1CCN(c2nc(Nc3ccccc3)nc(Nc3cc(-c4ccco4)[nH]n3)n2)CC1 [Example 20] | > 90
CN1CCN(c2nc(Nc3ncc(-c4cccs4)s3)nc(Sc3ccccc3)n2)CC1 [Example 21] | < 50
CN1CCN(c2nc(Nc3cc(-c4ccco4)[nH]n3)nc(Sc3cc(Cl)cc(Cl)c3)n2)CC1 [Example 22] | 50 to 90
CN1CCN(c2nc(Nc3cc(-c4ccco4)[nH]n3)nc(Sc3ccc(Cl)c(Cl)c3)n2)CC1 [Example 23] | 50 to 90
COc1ccc(Sc2nc(Nc3cc(-c4ccco4)[nH]n3)nc(N3CCN(C)CC3)n2)cc1 [Example 24] | > 90
CN1CCN(c2nc(Nc3cc(-c4ccco4)[nH]n3)nc(Sc3ccc(OC(F)(F)F)cc3)n2)CC1 [Example 25] | < 50
CN1CCN(c2nc(Nc3cc(-c4ccco4)[nH]n3)nc(Oc3ccccc3)n2)CC1 [Example 26] | > 90
CN1CCN(c2nc(Nc3cc(-c4ccco4)[nH]n3)nc(N(C)c3ccccc3)n2)CC1 [Example 27] | > 90
CN1CCN(c2nc(Nc3cc(-c4ccccc4)[nH]n3)nc(Sc3ccc(NC(=O)C4CC4)cc3)n2)CC1 [Example 28] | > 90
CN1CCN(c2nc(Nc3cc(-c4ccco4)[nH]n3)nc(Sc3cccc(NC(=O)C4CC4)c3)n2)CC1 [Example 30] | > 90
CN1CCN(c2nc(Nc3ncc(-c4cccs4)s3)nc(Sc3cccc(NC(=O)C4CC4)c3)n2)CC1 [Example 31] | < 50

biological target: T3, c-Src kinase (Homo sapiens, UniProt P12931); test: c-Src kinase assay (KinaseProfiler / Kinase Hotspot); format: biochemical; conditions: read-out: % Inhibition cSrc
T3 construct: purchased Millipore (KinaseProfiler Service); also Reaction Biology Corp. (Kinase HotSpot)
Description: as §1, §2

T3 sequence (P12931 whole entry): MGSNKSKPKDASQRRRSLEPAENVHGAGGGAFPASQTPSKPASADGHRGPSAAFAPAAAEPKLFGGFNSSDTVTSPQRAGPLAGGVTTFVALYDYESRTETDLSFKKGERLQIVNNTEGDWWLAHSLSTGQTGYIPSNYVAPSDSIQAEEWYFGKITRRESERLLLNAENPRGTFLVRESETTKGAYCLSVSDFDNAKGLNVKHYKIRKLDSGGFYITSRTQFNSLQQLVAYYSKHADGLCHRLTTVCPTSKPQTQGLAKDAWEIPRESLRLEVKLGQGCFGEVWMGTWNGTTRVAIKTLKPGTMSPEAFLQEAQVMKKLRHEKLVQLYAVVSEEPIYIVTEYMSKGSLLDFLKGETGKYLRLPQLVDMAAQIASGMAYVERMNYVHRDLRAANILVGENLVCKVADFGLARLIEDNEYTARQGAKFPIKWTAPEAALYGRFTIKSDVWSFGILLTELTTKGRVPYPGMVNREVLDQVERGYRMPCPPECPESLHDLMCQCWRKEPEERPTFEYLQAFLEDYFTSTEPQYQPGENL

Structure (SMILES) | inhibition at 1 µM [%]
CN1CCN(c2nc(Nc3ccccc3)nc(Nc3cc(-c4ccco4)[nH]n3)n2)CC1 [Example 20] | 50 to 90
CN1CCN(c2nc(Nc3ncc(-c4cccs4)s3)nc(Sc3ccccc3)n2)CC1 [Example 21] | < 50
CN1CCN(c2nc(Nc3cc(-c4ccco4)[nH]n3)nc(Sc3cc(Cl)cc(Cl)c3)n2)CC1 [Example 22] | < 50
CN1CCN(c2nc(Nc3cc(-c4ccco4)[nH]n3)nc(Sc3ccc(Cl)c(Cl)c3)n2)CC1 [Example 23] | < 50
COc1ccc(Sc2nc(Nc3cc(-c4ccco4)[nH]n3)nc(N3CCN(C)CC3)n2)cc1 [Example 24] | 50 to 90
CN1CCN(c2nc(Nc3cc(-c4ccco4)[nH]n3)nc(Sc3ccc(OC(F)(F)F)cc3)n2)CC1 [Example 25] | < 50
CN1CCN(c2nc(Nc3cc(-c4ccco4)[nH]n3)nc(Oc3ccccc3)n2)CC1 [Example 26] | 50 to 90
CN1CCN(c2nc(Nc3cc(-c4ccco4)[nH]n3)nc(N(C)c3ccccc3)n2)CC1 [Example 27] | 50 to 90
CN1CCN(c2nc(Nc3cc(-c4ccccc4)[nH]n3)nc(Sc3ccc(NC(=O)C4CC4)cc3)n2)CC1 [Example 28] | < 50
CN1CCN(c2nc(Nc3cc(-c4ccco4)[nH]n3)nc(Sc3cccc(NC(=O)C4CC4)c3)n2)CC1 [Example 30] | 50 to 90
CN1CCN(c2nc(Nc3ncc(-c4cccs4)s3)nc(Sc3cccc(NC(=O)C4CC4)c3)n2)CC1 [Example 31] | < 50

biological target: T4, TrkA Kinase (Homo sapiens, UniProt P04629); test: TrkA kinase assay (KinaseProfiler / Kinase Hotspot); format: biochemical; conditions: not given
T4 construct: purchased Millipore (KinaseProfiler Service); also Reaction Biology Corp. (Kinase HotSpot)
Description: as §1, §2

T4 sequence (P04629 33-796): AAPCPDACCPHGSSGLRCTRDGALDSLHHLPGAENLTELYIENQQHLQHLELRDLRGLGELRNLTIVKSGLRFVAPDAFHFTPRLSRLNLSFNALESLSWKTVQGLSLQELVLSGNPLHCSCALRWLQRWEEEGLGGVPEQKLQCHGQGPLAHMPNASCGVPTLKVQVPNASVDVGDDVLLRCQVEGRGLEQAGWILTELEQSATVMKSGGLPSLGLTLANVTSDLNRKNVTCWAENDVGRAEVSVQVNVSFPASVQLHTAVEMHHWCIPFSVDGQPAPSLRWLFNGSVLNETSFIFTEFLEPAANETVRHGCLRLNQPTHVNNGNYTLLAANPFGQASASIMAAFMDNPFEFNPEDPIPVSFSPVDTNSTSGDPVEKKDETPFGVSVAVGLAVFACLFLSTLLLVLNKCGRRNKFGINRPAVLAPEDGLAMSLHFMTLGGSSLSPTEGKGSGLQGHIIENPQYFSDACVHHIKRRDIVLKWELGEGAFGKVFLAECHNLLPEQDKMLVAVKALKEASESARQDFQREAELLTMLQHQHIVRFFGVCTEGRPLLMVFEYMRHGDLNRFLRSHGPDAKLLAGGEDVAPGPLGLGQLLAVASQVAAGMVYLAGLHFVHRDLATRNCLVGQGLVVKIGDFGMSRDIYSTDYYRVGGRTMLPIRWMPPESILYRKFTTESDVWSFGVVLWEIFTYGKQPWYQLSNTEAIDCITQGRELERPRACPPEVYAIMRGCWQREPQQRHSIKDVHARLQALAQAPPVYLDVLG

Structure (SMILES) | inhibition at 1 µM [%]
CN1CCN(c2nc(Nc3ncc(-c4cccs4)s3)nc(Sc3ccccc3)n2)CC1 [Example 21] | < 50
CN1CCN(c2nc(Nc3cc(-c4ccco4)[nH]n3)nc(Sc3cc(Cl)cc(Cl)c3)n2)CC1 [Example 22] | > 90
COc1ccc(Sc2nc(Nc3cc(-c4ccco4)[nH]n3)nc(N3CCN(C)CC3)n2)cc1 [Example 24] | > 90
CN1CCN(c2nc(Nc3cc(-c4ccco4)[nH]n3)nc(Sc3ccc(OC(F)(F)F)cc3)n2)CC1 [Example 25] | > 90
CN1CCN(c2nc(Nc3cc(-c4ccco4)[nH]n3)nc(Oc3ccccc3)n2)CC1 [Example 26] | > 90
CN1CCN(c2nc(Nc3cc(-c4ccco4)[nH]n3)nc(N(C)c3ccccc3)n2)CC1 [Example 27] | > 90
CN1CCN(c2nc(Nc3cc(-c4ccccc4)[nH]n3)nc(Sc3ccc(NC(=O)C4CC4)cc3)n2)CC1 [Example 28] | > 90
CN1CCN(c2nc(Nc3cc(-c4ccco4)[nH]n3)nc(Sc3cccc(NC(=O)C4CC4)c3)n2)CC1 [Example 30] | > 90
CN1CCN(c2nc(Nc3ncc(-c4cccs4)s3)nc(Sc3cccc(NC(=O)C4CC4)c3)n2)CC1 [Example 31] | < 50

biological target: T5, Flt3 kinase (Homo sapiens, UniProt P36888); test: Flt3 kinase assay (KinaseProfiler / Kinase Hotspot); format: biochemical; conditions: not given
T5 construct: purchased Millipore (KinaseProfiler Service); also Reaction Biology Corp. (Kinase HotSpot)
T5 sequence (P36888 27-993): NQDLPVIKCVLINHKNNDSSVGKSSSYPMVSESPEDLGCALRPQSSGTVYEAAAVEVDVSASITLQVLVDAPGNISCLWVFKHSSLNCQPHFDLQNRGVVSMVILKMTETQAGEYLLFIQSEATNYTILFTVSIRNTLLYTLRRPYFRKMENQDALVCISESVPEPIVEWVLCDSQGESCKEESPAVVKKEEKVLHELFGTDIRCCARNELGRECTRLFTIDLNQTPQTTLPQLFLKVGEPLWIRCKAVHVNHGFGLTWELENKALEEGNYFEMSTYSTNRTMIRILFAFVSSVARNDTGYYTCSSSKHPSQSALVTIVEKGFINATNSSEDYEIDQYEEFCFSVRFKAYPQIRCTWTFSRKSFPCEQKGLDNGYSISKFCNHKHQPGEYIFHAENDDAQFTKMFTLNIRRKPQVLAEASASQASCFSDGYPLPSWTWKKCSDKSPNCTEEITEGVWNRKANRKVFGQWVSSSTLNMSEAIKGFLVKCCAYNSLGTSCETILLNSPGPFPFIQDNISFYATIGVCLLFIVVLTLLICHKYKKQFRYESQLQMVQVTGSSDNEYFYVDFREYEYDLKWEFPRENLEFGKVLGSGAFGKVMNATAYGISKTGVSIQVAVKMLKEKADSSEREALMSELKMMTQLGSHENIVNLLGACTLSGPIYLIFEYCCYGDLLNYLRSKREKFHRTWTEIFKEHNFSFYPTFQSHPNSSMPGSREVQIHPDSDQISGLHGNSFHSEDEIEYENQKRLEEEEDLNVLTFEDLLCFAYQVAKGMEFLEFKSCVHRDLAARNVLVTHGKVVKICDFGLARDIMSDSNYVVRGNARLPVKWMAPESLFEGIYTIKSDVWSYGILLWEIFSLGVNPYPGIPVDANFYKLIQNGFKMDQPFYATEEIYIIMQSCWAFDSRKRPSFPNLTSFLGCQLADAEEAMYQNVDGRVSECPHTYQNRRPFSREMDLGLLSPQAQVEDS
Description: as §1, §2

Structure (SMILES) | inhibition at 1 µM [%]
CN1CCN(c2nc(Nc3ncc(-c4cccs4)s3)nc(Sc3ccccc3)n2)CC1 [Example 21] | < 50
